PMC4336141, “Repurposing Auranofin as a Lead Candidate for Treatment of Lymphatic Filariasis and Onchocerciasis” (PLoS Neglected Tropical Diseases, 2015)
pIC50: −log10 of the molar value.

What was measured:
adult B. malayi = experiment: Adult Brugia malayi worm motility assay (Worminator) in vitro; type: cell-based; conditions: for pIC50: B. malayi, Adult, Day 3, motility
Protocol: (§1) Adult female and male Brugia (B. malayi and B. pahangi) were shipped from TRS Labs Inc., Athens, GA and assayed using methods described by Marcellino et al. (2012). Individual females were placed in each well of a 24-well plate with media (RPMI-1640 with 25 mM HEPES, 2.0 g/L NaHCO3, 5% heat inactivated FBS, and 1X Antibiotic/Antimycotic solution). Excess media was removed from plates using a Biomek FxP, leaving 500 μL of media per well. Initial screening of a library of FDA-approved compounds, compiled by the Small Molecule Discovery Center at the University of California San Francisco, was conducted at 10 μM per compound, and 1% DMSO was used as a negative control. All drugs including auranofin (Enzo Life Sciences, Farmingdale, NY) were dissolved in DMSO (Sigma-Aldrich, St. Louis, MO) and 10 mM stock solutions were stored at -20°C. Four worms were used as replicates for each concentration and worm plates were kept in a 37°C, 5% CO2 incubator for four days.
(§2) To determine the effect of a compound on worm motility, individual worm movements were counted as the number of pixels displaced per second by each worm in each well using the Worminator. Each plate of worms was video recorded for approximately 60 seconds, and mean movement units (MMUs) were determined for individual worms. Percent inhibition of motility was calculated by dividing the MMUs of the treated worms by the control average MMUs, subtracting the value from 1.0, flooring the values to zero and multiplying by 100%. Videos were recorded for 4 days, including the first day of the assay (Day 0). IC50 determinations were conducted at 10 μM, 3 μM, 1 μM, 0.3 μM, 0.1 μM and 0.03 μM, with 1% DMSO used as a control. IC50 assays were repeated at the same concentrations and at six point, three-fold dilutions from 1 μM to 0.003 μM or 3 μM to […] to ensure that activity was consistent between assays. Prism 4.0 was used to calculate IC50 values using a non-linear regression curve fit. The means of all IC50s with R^2 values greater than or equal to 0.7 are reported.

adult female O. ochengi = experiment: Transmission electron microscopy of treated adult female O. ochengi; type: cell-based, Onchocerca ochengi; conditions: 10 μM, 7 days, vs untreated
Protocol: Adult female B. pahangi worms were incubated with either 1 μM, 0.3 μM, or 0.1 μM auranofin, 10 μM flubendazole (as a positive control), or 1% DMSO overnight, then cut into 3 segments separating the anterior, middle and posterior sections. The middle sections were further cut into 1 mm sized pieces in fixative (2.5% glutaraldehyde and 2% paraformaldehyde in 0.1 M sodium cacodylate buffer, pH 7.3–7.4) and stored at 4°C. Middle sections were subsequently treated with 1% tannic acid for 1 hour, followed by three buffer washes before post fixation staining with 2% osmium tetroxide for 1 hour. The samples were washed three times in buffer before dehydration in an ethanol series. Worm sections were then infiltrated with propylene oxide, embedded in epon 812 resin and polymerized in a vacuum oven at 60°C overnight. Ultrathin sections were cut using an RMC MTX ultramicrotome with a Diatome diamond knife followed by post staining of the grids with saturated ethanolic uranyl acetate and Reynolds lead citrate. Samples were imaged on a FEI Tecnai 12 spirit TEM operated at 80 kV. A similar procedure was performed on adult female O. ochengi worm masses that were cultured for 7 days with 10 μM auranofin before fixation of cut pieces of the adult female mass. Untreated adult female masses cultured for 7 days and fixed by the same procedure served as the control.

[1] = test system: Recombinant B. malayi TrxR (rBmTrxR); experiment: Recombinant B. malayi TrxR (rBmTrxR) DTNB inhibition assay; type: biochemical, Brugia malayi
Protocol: Recombinant 6-His-tagged B. malayi TrxR (rBmTrxR) was produced in E. coli BL21(DE3) in the presence of pSUABC [29] in LB medium supplemented with 20 μg/mL riboflavin under conditions for optimal selenoprotein expression. An overnight starter culture in LB with 50 μg/mL ampicillin and 34 μg/mL chloramphenicol was diluted (1:100) into in LB medium with the same antibiotics. When the culture reached an OD600 = 0.8, the medium was supplemented with 5 μM sodium selenite and 100 μg/mL L-cysteine. When the culture OD600 = 2, riboflavin (20 μg/mL) was added and protein expression was induced by the addition of isopropyl β-D-1-thiogalactopyranoside (50 μM). At this point the cultures were shifted to 24°C and incubated for 24 hr. Cells were collected by centrifugation, lysed by alternative freeze-thaw cycles, and resuspended in lysis buffer (50 mM potassium phosphate, pH 7.8, 500 mM NaCl, 30 mM imidazole, 1 mg/mL lysozyme, 1 mM phenylmethanesulfonylfluoride) supplemented with 100 μM flavin adenine dinucleotide. The sample was sonicated and cellular debris pelleted at 25,000 x g at 4°C for 25 min. The supernatant was collected and filtered through a 0.45 μm filter before purification by immobilized metal ion affinity chromatography using a His-Trap FF column (GE Healthcare). The column was washed with 10 column volumes binding buffer (50 mM potassium phosphate, pH 7.8, 500 mM NaCl, 30 mM imidazole) and then with 5 column volumes of buffer A (binding buffer with 100 mM imidazole). TrxR protein was eluted in 3 × 1 mL buffer B (binding buffer with 500 mM imidazole).Protein was concentrated (Amicon Ultra-4 10K) and purity was verified by SDS-PAGE and quantified by absorbance at 280 nm (ε = 69.76 mM^-1 cm^-1).
rBmTrxR activity was assayed in 0.1 M potassium phosphate (pH 7.2) with 10 mM EDTA and 25 nM rBmTrxR. rBmTxrR was pre-incubated for 20 min with NADPH (100 μM) and auranofin (ICN Pharmaceuticals, now Valeant Pharmaceuticals, Bridgewater, NJ) or aurothioglucose (USP Reference Standards, Rockville, MD) in DMSO in 100 μL, followed by addition of an equal volume of buffer with NADPH (200 μM) and DTNB (6 mM) with reaction progress monitored at λ = 412 nm for TNB production. The concentration of DMSO in all reactions was 3.5%.

adult B. pahangi = experiment: Adult Brugia pahangi worm motility assay (Worminator) in vitro; type: cell-based; conditions: for pIC50: B. pahangi, Adult, Day 3, motility
Protocol: as §1, §2

In the case of `CC[PH](CC)(CC)[Au][S][C@@H]1O[C@H](COC(C)=O)[C@@H](OC(C)=O)[C@H](OC(C)=O)[C@H]1OC(C)=O` [auranofin, 2,3,4,6-tetra-O-acetyl-1-thio-beta-D-glucopyranosato-S (triethylphosphine) gold], the pIC50 (adult B. malayi; Female) was 5.96, the pIC50 (adult B. malayi; Male) was 6.52 and the inhibition of motility (adult B. malayi; female B. malayi, 3 μM, within 18 hours of incubation) was 97%. The “ultrastructure (TEM) of adult female O. ochengi” value (adult female O. ochengi) was “Numerous vacuoles with inclusion bodies were observed in the muscle tissue below the hypodermal chord”, the “mode of inhibition of rBmTrxR” value [1] was “irreversibly inhibit rBmTrxR at a one-to-one molar ratio” and the pIC50 ([1]; 25 nM rBmTrxR, 20 min pre-incubation with NADPH, DTNB substrate) was 8.52. It also gave a pIC50 (adult B. pahangi; Female) of 6.30, a pIC50 (adult B. pahangi; Male) of 7.00 and an inhibition of motility (adult B. pahangi; female B. pahangi, 3 μM, within 18 hours of incubation) of 97%.
